Tests used:
Type in all cases: in vivo
Setaria viridis = assay: Test Example 5: herbicidal effect by foliage application, plastic box (symbol G); conditions: 320 g/ha, 3 weeks after application
How it was run: (§1)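 After sowing into sterilized diluvial soil and growing two weeks under glass at 25° C. to 30° C., seedlings receive a uniform foliar spray of diluted emulsion. Damage is judged visually three weeks on.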

Amaranthus retroflexus = assay: Test Example 5: herbicidal effect by foliage application, plastic box (symbol N); conditions: 320 g/ha, 3 weeks after application
How it was run: as §1

Alopecurus myosuroides = assay: Test Example 5: herbicidal effect by foliage application, plastic box (symbol J); conditions: 320 g/ha, 3 weeks after application
How it was run: as §1

Digitaria ciliaris = assay: Test Example 5: herbicidal effect by foliage application, plastic box (symbol F); conditions: 320 g/ha, 3 weeks after application
How it was run: as §1

Avena fatua = assay: Test Example 5: herbicidal effect by foliage application, plastic box (symbol I); conditions: 320 g/ha, 3 weeks after application
How it was run: as §1

beet = assay: Test Example 5: effect on crop by foliage application, plastic box (symbol f); conditions: 320 g/ha, 3 weeks after application
How it was run: (§2)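 Crop seed is sown alongside grass and broadleaf weed species in spots in sterilized diluvial soil, then covered to a depth of about 1.5 cm. Plants grow in a greenhouse kept at 25° C. to 30° C.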

[1] = system: Echinochloa crus-galli var. crus-galli; assay: Test Example 3: herbicidal effect by foliage application, Wagner pot (symbol H); conditions: application herbicide amount 320 g/ha
How it was run: (§3)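 Alluvial soil was flooded to a depth of 0.1–0.5 cm, seeded with the weeds and rice, and kept in a greenhouse at 25–30 °C. After 14 days of growth, the foliage received a small-sprayer application of emulsion diluted to the intended rate; injury was rated at 3 weeks.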

Abutilon theophrasti = assay: Test Example 5: herbicidal effect by foliage application, plastic box (symbol M); conditions: 320 g/ha, 3 weeks after application
How it was run: as §1

Chenopodium album = assay: Test Example 5: herbicidal effect by foliage application, plastic box (symbol O); conditions: 320 g/ha, 3 weeks after application
How it was run: as §1

corn = assay: Test Example 5: effect on crop by foliage application, plastic box (symbol c); conditions: 320 g/ha, 3 weeks after application
How it was run: as §2

Cyperus difformis = assay: Test Example 3: herbicidal effect by foliage application, Wagner pot (symbol E); conditions: application herbicide amount 320 g/ha
How it was run: as §3

rice plant = assay: Test Example 5: effect on crop by foliage application, plastic box (symbol b); conditions: 320 g/ha, 3 weeks after application
How it was run: as §2

Veronica persica = assay: Test Example 5: herbicidal effect by foliage application, plastic box (symbol R); conditions: 320 g/ha, 3 weeks after application
How it was run: as §1

soybean = assay: Test Example 5: effect on crop by foliage application, plastic box (symbol d); conditions: 320 g/ha, 3 weeks after application
How it was run: as §2

Galium spurium = assay: Test Example 5: herbicidal effect by foliage application, plastic box (symbol Q); conditions: 320 g/ha, 3 weeks after application
Description: Herbicidal Effect Test by Foliage Application
Sterilized diluvial soil was placed in a plastic box having a length of 21 cm, a width of 13 cm, and a depth of 7 cm. Each of the seeds of Digitaria ciliaris, Setaria viridis, Echinochloa crus-galli var. crus-galli, Avena fatua, Alopecurus myosuroides, Lolium multiflorum Lam., Apera spica-venti, Abutilon theophrasti, Amaranthus retroflexus, Chenopodium album, Stellaria media, Galium spurium, Veronica persica, corn, soybean, rice plant, wheat, beet, and rapeseed was sowed in a spot-like manner and was covered with the soil of a thickness of about 1.5 cm. Thereafter, the plants were grown in the greenhouse of 25° C. to 30° C. After the plants were grown for 14 days, the emulsion agent of the compound of the present invention prepared in accordance with Formulation Example 2 was diluted with water so as to be a predetermined herbicide amount and the diluted emulsion agent was uniformly applied to a foliage part with a small-size spray. 3 weeks later from the herbicide application, the effect to each plant was investigated in accordance with the criteria of Test Example 1.

wheat = assay: Test Example 5: effect on crop by foliage application, plastic box (symbol e); conditions: 320 g/ha, 3 weeks after application
How it was run: as §2

[2] = system: directly sowed rice plant; assay: Test Example 3: effect on crop by foliage application, Wagner pot (symbol b); conditions: application herbicide amount 320 g/ha
How it was run: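 Greenhouse culture at 25–30 °C of seeded rice, Cyperus difformis, Leptochloa chinensis and Echinochloa crus-galli var. crus-galli, in alluvial soil held under 0.1–0.5 cm of water in a Wagner pot.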

rapeseed = assay: Test Example 5: effect on crop by foliage application, plastic box (symbol g); conditions: 320 g/ha, 3 weeks after application
How it was run: as §2

Stellaria media = assay: Test Example 5: herbicidal effect by foliage application, plastic box (symbol P); conditions: 320 g/ha, 3 weeks after application
How it was run: as §1

Leptochloa chinensis = assay: Test Example 3: herbicidal effect by foliage application, Wagner pot (symbol D); conditions: application herbicide amount 320 g/ha
How it was run: as §3

Apera spica-venti = assay: Test Example 5: herbicidal effect by foliage application, plastic box (symbol L); conditions: 320 g/ha, 3 weeks after application
How it was run: as §1

[3] = system: Echinochloa crus-galli var. crus-galli; assay: Test Example 5: herbicidal effect by foliage application, plastic box (symbol H); conditions: 320 g/ha, 3 weeks after application
How it was run: as §1

Lolium multiflorum Lam. = assay: Test Example 5: herbicidal effect by foliage application, plastic box (symbol K); conditions: 320 g/ha, 3 weeks after application
How it was run: as §1

CC(CC1CC(O)=C(c2c(C)cc(C)cc2C)C1=O)=NOCCN (stereo not drawn) [1-132]
G: Setaria viridis, herbicidal effect (criteria 0-5) (Setaria viridis): 0 (Herbicidal ratio of 5% or lower (almost no effect))
N: Amaranthus retroflexus, herbicidal effect (criteria 0-5) (Amaranthus retroflexus): 0 (Herbicidal ratio of 5% or lower (almost no effect))
J: Alopecurus myosuroides, herbicidal effect (criteria 0-5) (Alopecurus myosuroides): 2 (Herbicidal ratio of 20% or higher and lower than 40%)
F: Digitaria ciliaris, herbicidal effect (criteria 0-5) (Digitaria ciliaris): 0 (Herbicidal ratio of 5% or lower (almost no effect))
I: Avena fatua, herbicidal effect (criteria 0-5) (Avena fatua): 1 (Herbicidal ratio of 5% or higher and lower than 20%)
f: beet, effect on crop (criteria 0-5) (beet): 0 (Herbicidal ratio of 5% or lower (almost no effect))
herbicidal effect on H (Echinochloa crus-galli var. crus-galli), grade 0-5 [1]: 2 (Herbicidal ratio of 20% or higher and lower than 40%)
M: Abutilon theophrasti, herbicidal effect (criteria 0-5) (Abutilon theophrasti): 0 (Herbicidal ratio of 5% or lower (almost no effect))
O: Chenopodium album, herbicidal effect (criteria 0-5) (Chenopodium album): 0 (Herbicidal ratio of 5% or lower (almost no effect))
c: corn, effect on crop (criteria 0-5) (corn): 0 (Herbicidal ratio of 5% or lower (almost no effect))
herbicidal effect on E, grade 0-5 (Cyperus difformis): 0 (Herbicidal ratio of 5% or lower (almost no effect))
b: directly sowed rice plant, effect on crop (criteria 0-5) (rice plant): 1 (Herbicidal ratio of 5% or higher and lower than 20%)
R: Veronica persica, herbicidal effect (criteria 0-5) (Veronica persica): 0 (Herbicidal ratio of 5% or lower (almost no effect))
d: soybean, effect on crop (criteria 0-5) (soybean): 0 (Herbicidal ratio of 5% or lower (almost no effect))
Q: Galium spurium, herbicidal effect (criteria 0-5) (Galium spurium): 0 (Herbicidal ratio of 5% or lower (almost no effect))
e: wheat, effect on crop (criteria 0-5) (wheat): 0 (Herbicidal ratio of 5% or lower (almost no effect))
effect on crop b (directly sowed rice plant), grade 0-5 [2]: 1 (Herbicidal ratio of 5% or higher and lower than 20%)
g: rapeseed, effect on crop (criteria 0-5) (rapeseed): 3 (Herbicidal ratio of 40% or higher and lower than 70%)
P: Stellaria media, herbicidal effect (criteria 0-5) (Stellaria media): 0 (Herbicidal ratio of 5% or lower (almost no effect))
herbicidal effect on D (Leptochloa chinensis), grade 0-5 (Leptochloa chinensis): 1 (Herbicidal ratio of 5% or higher and lower than 20%)
L: Apera spica-venti, herbicidal effect (criteria 0-5) (Apera spica-venti): 1 (Herbicidal ratio of 5% or higher and lower than 20%)
H: Echinochloa crus-galli var. crus-galli, herbicidal effect (criteria 0-5) [3]: 0 (Herbicidal ratio of 5% or lower (almost no effect))
K: Lolium multiflorum Lam., herbicidal effect (criteria 0-5) (Lolium multiflorum Lam.): 3 (Herbicidal ratio of 40% or higher and lower than 70%)

CON=C(C)CC1CC(OC(=O)N(C(C)C)C(C)C)=C(c2c(C)cc(C)cc2C)C1=O (stereo not drawn) [1-158]
G: Setaria viridis, herbicidal effect grade (Setaria viridis): 0 (Herbicidal ratio of 5% or lower (almost no effect))
N: Amaranthus retroflexus, herbicidal effect grade (Amaranthus retroflexus): 0 (Herbicidal ratio of 5% or lower (almost no effect))
J: Alopecurus myosuroides, herbicidal effect grade (Alopecurus myosuroides): 1 (Herbicidal ratio of 5% or higher and lower than 20%)
F: Digitaria ciliaris, herbicidal effect grade (Digitaria ciliaris): 0 (Herbicidal ratio of 5% or lower (almost no effect))
I: Avena fatua, herbicidal effect grade (Avena fatua): 3 (Herbicidal ratio of 40% or higher and lower than 70%)
f: beet, effect on crop grade (beet): 0 (Herbicidal ratio of 5% or lower (almost no effect))
herbicidal effect on H (Echinochloa crus-galli var. crus-galli), grade 0-5 [1]: 0 (Herbicidal ratio of 5% or lower (almost no effect))
M: Abutilon theophrasti, herbicidal effect grade (Abutilon theophrasti): 0 (Herbicidal ratio of 5% or lower (almost no effect))
O: Chenopodium album, herbicidal effect grade (Chenopodium album): 0 (Herbicidal ratio of 5% or lower (almost no effect))
c: corn, effect on crop grade (corn): 0 (Herbicidal ratio of 5% or lower (almost no effect))
herbicidal effect on E, grade 0-5 (Cyperus difformis): 0 (Herbicidal ratio of 5% or lower (almost no effect))
b: directly sowed rice plant, effect on crop grade (rice plant): 1 (Herbicidal ratio of 5% or higher and lower than 20%)
R: Veronica persica, herbicidal effect grade (Veronica persica): 0 (Herbicidal ratio of 5% or lower (almost no effect))
d: soybean, effect on crop grade (soybean): 0 (Herbicidal ratio of 5% or lower (almost no effect))
Q: Galium spurium, herbicidal effect grade (Galium spurium): 0 (Herbicidal ratio of 5% or lower (almost no effect))
e: wheat, effect on crop grade (wheat): 0 (Herbicidal ratio of 5% or lower (almost no effect))
effect on crop b (directly sowed rice plant), grade 0-5 [2]: 2 (Herbicidal ratio of 20% or higher and lower than 40%)
g: rapeseed, effect on crop grade (rapeseed): 2 (Herbicidal ratio of 20% or higher and lower than 40%)
P: Stellaria media, herbicidal effect grade (Stellaria media): 0 (Herbicidal ratio of 5% or lower (almost no effect))
herbicidal effect on D (Leptochloa chinensis), grade 0-5 (Leptochloa chinensis): 2 (Herbicidal ratio of 20% or higher and lower than 40%)
L: Apera spica-venti, herbicidal effect grade (Apera spica-venti): 0 (Herbicidal ratio of 5% or lower (almost no effect))
H: Echinochloa crus-galli var. crus-galli, herbicidal effect grade [3]: 1 (Herbicidal ratio of 5% or higher and lower than 20%)
K: Lolium multiflorum Lam., herbicidal effect grade (Lolium multiflorum Lam.): 4 (Herbicidal ratio of 70% or higher and lower than 90%)

CCOC(=O)C(C(=O)C1CCCCC1)C1CC(O)=C(c2c(C)cc(C)cc2C)C1=O (stereo not drawn) [2-029]
G: Setaria viridis, herbicidal effect grade (Setaria viridis): 0 (Herbicidal ratio of 5% or lower (almost no effect))
N: Amaranthus retroflexus, herbicidal effect grade (Amaranthus retroflexus): 0 (Herbicidal ratio of 5% or lower (almost no effect))
J: Alopecurus myosuroides, herbicidal effect grade (Alopecurus myosuroides): 0 (Herbicidal ratio of 5% or lower (almost no effect))
F: Digitaria ciliaris, herbicidal effect grade (Digitaria ciliaris): 0 (Herbicidal ratio of 5% or lower (almost no effect))
I: Avena fatua, herbicidal effect grade (Avena fatua): 2 (Herbicidal ratio of 20% or higher and lower than 40%)
f: beet, effect on crop grade (beet): 0 (Herbicidal ratio of 5% or lower (almost no effect))
herbicidal effect on H (Echinochloa crus-galli var. crus-galli), grade 0-5 [1]: 0 (Herbicidal ratio of 5% or lower (almost no effect))
M: Abutilon theophrasti, herbicidal effect grade (Abutilon theophrasti): 0 (Herbicidal ratio of 5% or lower (almost no effect))
O: Chenopodium album, herbicidal effect grade (Chenopodium album): 0 (Herbicidal ratio of 5% or lower (almost no effect))
c: corn, effect on crop grade (corn): 0 (Herbicidal ratio of 5% or lower (almost no effect))
herbicidal effect on E, grade 0-5 (Cyperus difformis): 0 (Herbicidal ratio of 5% or lower (almost no effect))
b: directly sowed rice plant, effect on crop grade (rice plant): 2 (Herbicidal ratio of 20% or higher and lower than 40%)
R: Veronica persica, herbicidal effect grade (Veronica persica): 0 (Herbicidal ratio of 5% or lower (almost no effect))
d: soybean, effect on crop grade (soybean): 0 (Herbicidal ratio of 5% or lower (almost no effect))
Q: Galium spurium, herbicidal effect grade (Galium spurium): 0 (Herbicidal ratio of 5% or lower (almost no effect))
e: wheat, effect on crop grade (wheat): 0 (Herbicidal ratio of 5% or lower (almost no effect))
effect on crop b (directly sowed rice plant), grade 0-5 [2]: 4 (Herbicidal ratio of 70% or higher and lower than 90%)
g: rapeseed, effect on crop grade (rapeseed): 0 (Herbicidal ratio of 5% or lower (almost no effect))
P: Stellaria media, herbicidal effect grade (Stellaria media): 0 (Herbicidal ratio of 5% or lower (almost no effect))
herbicidal effect on D (Leptochloa chinensis), grade 0-5 (Leptochloa chinensis): 0 (Herbicidal ratio of 5% or lower (almost no effect))
L: Apera spica-venti, herbicidal effect grade (Apera spica-venti): 0 (Herbicidal ratio of 5% or lower (almost no effect))
H: Echinochloa crus-galli var. crus-galli, herbicidal effect grade [3]: 0 (Herbicidal ratio of 5% or lower (almost no effect))
K: Lolium multiflorum Lam., herbicidal effect grade (Lolium multiflorum Lam.): 1 (Herbicidal ratio of 5% or higher and lower than 20%)

— patent publication US11000033B2, “Ketone or oxime compound, and herbicide” (NISSAN CHEMICAL CORPORATION, priority 2014, dated 2021)
